Source: US4570005A, “Process for the preparation of 2-arylpropyl ether or thioether derivatives” (priority 1980, dated 1986)
Converted amounts (≈) assume the structure as drawn.

Assays:
[1] = test system: sensitive green rice leafhopper (collected at Chigasaki); assay: whole plant or invertebrate; format: in vivo; details: Nephotettix cincticeps, sensitive female adults, 24 hours, read-out: Mortality (%), Green Rice Leafhopper Collected at Chigasaki
How it was run: (§1)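 Emulsifiable concentrate diluted to 100 or 20 ppm was sprayed, 3 ml per pot, onto hydroponic rice seedlings at 2–3 leaves. After air-drying, 10 female adults of the Nakagawara (resistant) or Chigasaki (sensitive) strain were released per caged pot. Mortality was counted at 24 h and averaged over three pots.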

green peach aphid = assay: Test 5: Effect on Green Peach Aphid; format: in vivo; details: Myzus persicae; 100 ppm; mortality class; 24 hours; read-out: Insecticidal Activity
How it was run: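 Eggplant seedlings with 3–4 leaves were infested with aphids and sprayed with a 100 ppm aqueous dilution of an emulsifiable concentrate, then kept in a glasshouse. Living insects were counted after 24 h. Mortality is averaged over three pots and graded A (>95%), B (80–95%), C (50–80%) or D (<50%).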

German cockroach = assay: Test 7: Effect on German Cockroach; format: in vivo; details: Blattella germanica, male adults, agonized and killed after 24 hours, read-out: Mortality (%); for mortality at 10 mg/m2: 10 mg/m^2; for mortality at 50 mg/m2: 50 mg/m^2
How it was run: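 Petri dish floors were treated with 50 or 10 mg/m2 of compound (diluted emulsifiable concentrate) and air-dried. Ten male adult German cockroaches per dish were held at 25° C. Agonized and dead insects were counted after 24 hours, averaging two dishes.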

[2] = Test 9: Toxicity Test (acute oral toxicity, mice); details: mouse, in vivo, po
Procedure: A predetermined amount of a solution or suspension of a test compound in corn oil was orally administered to male mice having a body weight of 19 to 23 g (0.2 ml per 10 g of the body weight). After 7 days, the number of killed mice was counted and the influences on the mice were examined.

[3] = test system: resistant green rice leafhopper (collected at Nakagawara); assay: Test 3: Effect on Resistant Green Rice Leafhopper (collected at Nakagawara); format: in vivo, Nephotettix cincticeps Uhler (Green rice leafhopper); details: Nephotettix cincticeps, 24 h, read-out: Mortality (%), Green Rice Leafhopper Collected at Nakagawara
How it was run: as §1

two-spotted spider mite = assay: Test 6: Effect on Two-Spotted Spider mite Adults; format: in vivo; details: Tetranychus urticae; 100 ppm; adults; 24 hours; 25° C; read-out: Mortality (%)
Procedure: To a mixture of 20 parts of the compound of the present invention and 20 parts of Sorpol SM-200 (registered tradename for the product supplied by Toho Chemical Industrial Co., Ltd.) was added 60 parts of xylol, and the mixture was suffciently blended. The obtained emulsifiable concentrate was diluted at a predetermined concentration with distilled water, and the obtained dilution was used.
A kidney bean leaf disc perforated with a cork borer (15 mm in diameter) was placed on water-impregnated absorbent cotton (2 cm×2 cm), and 10 adults of two-spotted spider mite were set free. A chemical dilution having a concentration of 100 ppm was applied with an applicator in an amount of 3 ml.
The leaf disc-placed absorbent cotton was placed in a thermostat chamber maintained at 25° C. After 24 hours, the number of killed adults was counted and the mortality was calculated. The test was made on three leaf discs and the average value was calculated.

Test 8: Fish Toxicity = format: in vivo; details: carp, water; concentration at which 1/2 of the test fishes were killed within 48 hours; read-out: Fish Toxicity, TLm48
Procedure: A water tank having a width of 60 cm, a length of 30 cm and a height of 40 cm was filled with water, and 10 yearling carps having a body length of about 5 cm were set free in the tank and adapted to the environment in the tank. A test compound was applied so that the concentration in water was 10, 1 or 0.1 ppm. After 48 hours, the numbers of killed and living carps were counted and the influences on the fishes were examined.

diamond back moth = assay: Test 4: Effect on Diamond Back Moth; format: in vivo; details: Plutella, third-instar larvae, 24 hours, read-out: Mortality (%)
How it was run: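 Compound formulated as an emulsifiable concentrate, diluted in water to 100 or 20 ppm and sprayed at 3 ml per cup onto cabbage leaves holding 10 third-instar larvae. Mortality counted after 24 hours; mean of three cups.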

tobacco cutworm [4] = assay: Test 2: Tobacco Cutworm Larva Dipping Test, mortality after 24 hours; format: in vivo; details: 24 hours
How it was run: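 Second- and fifth-instar larvae dipped 5 s in a water dilution of an emulsifiable concentrate at 100 or 20 ppm, blotted, then held on artificial diet at 25° C. Dead and living larvae counted after 24 hours; mortality averaged over three cups.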

tobacco cutworm [5] = assay: Test 1: Effect on Tobacco Cutworm (leaf immersion), mortality after 24 hours; format: in vivo; details: second-instar larvae, 25° C
How it was run: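 Sweet-potato leaves dipped 10 s in emulsifiable concentrate diluted to 100 or 20 ppm, air-dried, then exposed to second-instar larvae at 25 °C. Mortality counted after 24 h, averaged over three cups.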

[6] = fifth-instar larvae, read-out: Motality (%), Fifth-Instar Larvae
[7] = second-instar larvae, read-out: Motality (%), Second-Instar Larvae

COc1ccc(Oc2cccc(COCC(C)(C)c3ccc(Cl)c(Cl)c3)c2)cc1 [Compound 41, 3-(4-methoxyphenoxy)benzyl 2-(3,4-dichlorophenyl)-2-methylpropyl ether]
mortality at 20 ppm [1]: 100%
mortality at 100 ppm [1]: 100%
mortality at 100 ppm (green peach aphid): > 95%
mortality at 10 mg/m2 (German cockroach): 100%
mortality at 50 mg/m2 (German cockroach): 100%
LD50 at 168 h [2]: > 500 mg/kg
mortality at 20 ppm [3]: 100%
mortality at 100 ppm [3]: 100%
mortality at 100 ppm (two-spotted spider mite): 100%
LC50 at 48 h (Test 8: Fish Toxicity): > 10 µg/mL

CC(C)(COCc1cccc(Oc2ccc(F)cc2)c1)c1ccc(Cl)cc1 [Compound 6, 3-(4-Fluorophenoxy)benzyl 2-(4-chlorophenyl)-2-methylpropyl ether]
mortality at 20 ppm [1]: 100%
mortality at 100 ppm [1]: 100%
mortality at 100 ppm (green peach aphid): > 95%
mortality at 20 ppm (diamond back moth): 100%
mortality at 100 ppm (diamond back moth): 100%
mortality at 10 mg/m2 (German cockroach): 100%
mortality at 50 mg/m2 (German cockroach): 100%
LD50 at 168 h [2]: > 500 mg/kg
mortality at 20 ppm [3]: 100%
mortality at 100 ppm [3]: 100%
mortality at 20 ppm (tobacco cutworm [4]; [6]): 100%
mortality at 20 ppm (tobacco cutworm [4]; [7]): 100%
mortality at 100 ppm (tobacco cutworm [4]; [6]): 100%
mortality at 100 ppm (tobacco cutworm [4]; [7]): 100%
mortality at 100 ppm (two-spotted spider mite): 100%
mortality at 20 ppm (tobacco cutworm [5]): 100%
mortality at 100 ppm (tobacco cutworm [5]): 100%
LC50 at 48 h (Test 8: Fish Toxicity): > 10 µg/mL

CC(C)(COCc1cccc(Oc2ccc(F)cc2)c1)c1ccc(OC(F)F)cc1 [Compound 11, 3-(4-Fluorophenoxy)benzyl 2-(4-difluoromethoxyphenyl)-2-methylpropyl ether]
mortality at 20 ppm [1]: 100%
mortality at 100 ppm [1]: 100%
mortality at 100 ppm (green peach aphid): > 95%
mortality at 20 ppm (diamond back moth): 90%
mortality at 100 ppm (diamond back moth): 100%
mortality at 10 mg/m2 (German cockroach): 100%
mortality at 50 mg/m2 (German cockroach): 100%
LD50 at 168 h [2]: > 500 mg/kg
mortality at 20 ppm [3]: 100%
mortality at 100 ppm [3]: 100%
mortality at 20 ppm (tobacco cutworm [4]; [6]): 70%
mortality at 20 ppm (tobacco cutworm [4]; [7]): 90%
mortality at 100 ppm (tobacco cutworm [4]; [6]): 100%
mortality at 100 ppm (tobacco cutworm [4]; [7]): 100%
mortality at 100 ppm (two-spotted spider mite): 100%
mortality at 20 ppm (tobacco cutworm [5]): 100%
mortality at 100 ppm (tobacco cutworm [5]): 100%
LC50 at 48 h (Test 8: Fish Toxicity): 0.01 to 0.05 µg/mL (≈ 0.024 to 0.12 µM)

CCC(C)(COCc1cccc(Oc2ccccc2)c1)c1ccc(Cl)cc1 (stereo not shown) [Compound 50, 3-Phenoxybenzyl 2-(4-chlorophenyl)-2-ethylpropyl ether]
mortality at 20 ppm [1]: 80%
mortality at 100 ppm [1]: 100%
mortality at 100 ppm (green peach aphid): > 95%
mortality at 20 ppm (diamond back moth): 100%
mortality at 100 ppm (diamond back moth): 100%
mortality at 10 mg/m2 (German cockroach): 100%
mortality at 50 mg/m2 (German cockroach): 100%
LD50 at 168 h [2]: > 500 mg/kg
mortality at 20 ppm [3]: 90%
mortality at 100 ppm [3]: 100%
mortality at 20 ppm (tobacco cutworm [4]; [6]): 90%
mortality at 20 ppm (tobacco cutworm [4]; [7]): 100%
mortality at 100 ppm (tobacco cutworm [4]; [6]): 100%
mortality at 100 ppm (tobacco cutworm [4]; [7]): 100%
mortality at 100 ppm (two-spotted spider mite): 100%
mortality at 20 ppm (tobacco cutworm [5]): 100%
mortality at 100 ppm (tobacco cutworm [5]): 100%
LC50 at 48 h (Test 8: Fish Toxicity): > 10 µg/mL

CC(C)(COCc1cccc(Oc2ccccc2)c1)c1ccc(Cl)c(Cl)c1 [Compound 48, 3-Phenoxybenzyl 2-(3,4-dichlorophenyl)-2-methylpropyl ether]
mortality at 20 ppm [1]: 100%
mortality at 100 ppm [1]: 100%
mortality at 100 ppm (green peach aphid): > 95%
mortality at 20 ppm (diamond back moth): 100%
mortality at 100 ppm (diamond back moth): 100%
mortality at 10 mg/m2 (German cockroach): 100%
mortality at 50 mg/m2 (German cockroach): 100%
LD50 at 168 h [2]: > 500 mg/kg
mortality at 20 ppm [3]: 100%
mortality at 100 ppm [3]: 100%
mortality at 20 ppm (tobacco cutworm [4]; [6]): 60%
mortality at 20 ppm (tobacco cutworm [4]; [7]): 70%
mortality at 100 ppm (tobacco cutworm [4]; [6]): 70%
mortality at 100 ppm (tobacco cutworm [4]; [7]): 90%
mortality at 100 ppm (two-spotted spider mite): 100%
mortality at 20 ppm (tobacco cutworm [5]): 80%
mortality at 100 ppm (tobacco cutworm [5]): 100%
LC50 at 48 h (Test 8: Fish Toxicity): > 10 µg/mL

CC(C)Oc1ccc(C(C)(C)COCc2cccc(Oc3ccccc3)c2)cc1 [Compound 59, 3-Phenoxybenzyl 2-(4-isopropoxyphenyl)-2-methylpropyl ether]
mortality at 20 ppm [1]: 100%
mortality at 100 ppm [1]: 100%
mortality at 100 ppm (green peach aphid): > 95%
mortality at 20 ppm (diamond back moth): 85%
mortality at 100 ppm (diamond back moth): 100%
mortality at 10 mg/m2 (German cockroach): 100%
mortality at 50 mg/m2 (German cockroach): 100%
LD50 at 168 h [2]: > 500 mg/kg
mortality at 20 ppm [3]: 100%
mortality at 100 ppm [3]: 100%
mortality at 20 ppm (tobacco cutworm [4]; [6]): 100%
mortality at 20 ppm (tobacco cutworm [4]; [7]): 100%
mortality at 100 ppm (tobacco cutworm [4]; [6]): 100%
mortality at 100 ppm (tobacco cutworm [4]; [7]): 100%
mortality at 100 ppm (two-spotted spider mite): 100%

CCCCOc1ccc(C(C)(C)COCc2cccc(Oc3ccccc3)c2)cc1 [Compound 69, 3-Phenoxybenzyl 2-[4-(n-butoxy)phenyl]-2-methylpropyl ether]
mortality at 100 ppm (green peach aphid): > 95%
LD50 at 168 h [2]: > 500 mg/kg
mortality at 100 ppm (two-spotted spider mite): 60%
LC50 at 48 h (Test 8: Fish Toxicity): > 1 µg/mL

CC(C)(COCc1cccc(Oc2ccccc2)c1)c1ccc(OC(F)F)cc1 [Compound 18, 3-phenoxybenzyl 2-(4-difluoromethoxyphenyl)-2-methylpropyl ether]
mortality at 20 ppm [1]: 100%
mortality at 100 ppm [1]: 100%
mortality at 100 ppm (green peach aphid): > 95%
mortality at 20 ppm (diamond back moth): 100%
mortality at 100 ppm (diamond back moth): 100%
mortality at 10 mg/m2 (German cockroach): 100%
mortality at 50 mg/m2 (German cockroach): 100%
LD50 at 168 h [2]: > 500 mg/kg
mortality at 20 ppm [3]: 100%
mortality at 100 ppm [3]: 100%
mortality at 20 ppm (tobacco cutworm [4]; [6]): 100%
mortality at 20 ppm (tobacco cutworm [4]; [7]): 100%
mortality at 100 ppm (tobacco cutworm [4]; [6]): 100%
mortality at 100 ppm (tobacco cutworm [4]; [7]): 100%
mortality at 100 ppm (two-spotted spider mite): 100%
mortality at 20 ppm (tobacco cutworm [5]): 100%
mortality at 100 ppm (tobacco cutworm [5]): 100%

COc1ccc(C(C)(C)COCc2cccc(Oc3ccccc3)c2)cc1 [Compound 1, 3-Phenoxybenzyl 2-(4-methoxyphenyl)-2-methyl propyl ether]
mortality at 20 ppm [1]: 100%
mortality at 100 ppm [1]: 100%
mortality at 100 ppm (green peach aphid): 80 to 95%
mortality at 10 mg/m2 (German cockroach): 100%
mortality at 50 mg/m2 (German cockroach): 100%
LD50 at 168 h [2]: > 500 mg/kg
mortality at 20 ppm [3]: 100%
mortality at 100 ppm [3]: 100%
mortality at 100 ppm (two-spotted spider mite): 100%
LC50 at 48 h (Test 8: Fish Toxicity): > 10 µg/mL

CC(C)(CSCc1cccc(Oc2ccccc2)c1)c1ccc(Cl)cc1 [Compound 20, 3-Phenoxybenzyl 2-(4-chlorophenyl)-2-methylpropyl thioether]
mortality at 20 ppm [1]: 50%
mortality at 100 ppm [1]: 100%
mortality at 100 ppm (green peach aphid): > 95%
mortality at 20 ppm (diamond back moth): 100%
mortality at 100 ppm (diamond back moth): 100%
LD50 at 168 h [2]: > 500 mg/kg
mortality at 20 ppm [3]: 80%
mortality at 100 ppm [3]: 100%
mortality at 20 ppm (tobacco cutworm [4]; [6]): 80%
mortality at 20 ppm (tobacco cutworm [4]; [7]): 90%
mortality at 100 ppm (tobacco cutworm [4]; [6]): 100%
mortality at 100 ppm (tobacco cutworm [4]; [7]): 100%
mortality at 100 ppm (two-spotted spider mite): 100%
mortality at 20 ppm (tobacco cutworm [5]): 100%
mortality at 100 ppm (tobacco cutworm [5]): 100%
LC50 at 48 h (Test 8: Fish Toxicity): > 10 µg/mL

CC(C)(C)c1ccc(C(C)(C)COCc2cccc(Oc3ccccc3)c2)cc1 [Compound 105, 3-Phenoxybenzyl 2-(4-tert-butylphenyl)-2-methylpropyl ether]
mortality at 100 ppm (green peach aphid): 80 to 95%
LD50 at 168 h [2]: > 500 mg/kg
mortality at 100 ppm (two-spotted spider mite): 100%
LC50 at 48 h (Test 8: Fish Toxicity): > 1 µg/mL
